This experiment concerns cucumber phytophthora blight fungi (Phytophthora capsici). Description: Test for controlling cucumber phytophthora blight fungi (growth in PDB medium, absorbance at 600 nm). The note with it: 4.5 mg in 100 μL dimethyl sulfoxide, 1 μL of it in 150 μL PDB medium with zoospores, 27° C., three days, Efficacy=100×(X−Y)/X. In kind it is cell-based. As for the experimental part: Four point five (4.5) milligrams of the present compound was diluted with 100 μL of dimethyl sulfoxide. One (1) μL portion of the diluted liquid was dispensed into a titer plate (96 wells), and thereto was then dispensed 150 μL of a potato dextrose broth medium (PDB medium) containing zoospores of cucumber phytophthora blight fungi (Phytophthora capsici). This plate was cultured at 27° C. for three days, thereby allowing the cucumber phytophthora blight fungi to undergo proliferation, and the absorbance at 600 nm of each well of the titer plate was then measured to determine a degree of growth of the cucumber phytophthora blight fungi. The efficacy was calculated from the determined degree of growth by the below-mentioned “Equation 1”. As a result, the efficacy of the Present compound was 80% or more. Efficacy=100×(X−Y)/X “Equation 1” where X: Degree of fungal growth in non-treated area Y: Degree of fungal growth in treated area
In the test example, a non-treated area means an area in which a test was conducted in the same manner, except that dimethyl sulfoxide was dispensed in place of the present compound diluted with dimethyl sulfoxide.

This note sets out measurements from patent publication US10844019B2, “1-phenyl-3-carbamoyl urea compound, and use thereof” (Sumitomo Chemical Company, Limited, priority 2016, dated 2020).

In the case of `CCOC(=O)COc1ncccc1Oc1cc(NC(C)=O)c(F)cc1Cl` [N-[4-chloro-2-fluoro-5-{2-(ethoxycarbonyl)methoxy-3-pyridyloxy}phenyl]acetamide], the Efficacy result is reported as “less than 50%”.
Take `CCOC(=O)COc1ncccc1Oc1cc(NC(=O)NC(N)=O)c(F)cc1Cl` [Present compound]: the Efficacy is listed as not below 80%.
